# Measured values reported in article PMC11251504 (Hypertension (Dallas, Tex. : 1979), 2024).
# “Also recorded” adds a separate entry of the source. Peptide text beside a SMILES is read from it.
# Key:
# [1] = Metabolism of Ang-(1-12) in 1:10 diluted human plasma with and without enzyme inhibitors; details: 37 °C; for Angiotensin metabolite generated from Ang-(1-12), aliskiren + lisinopril / Angiotensin metabolite generated from Ang-(1-12), aliskiren: 60 min after adding 1000 ng/mL Ang-(1-12), t=0 level subtracted; for Angiotensin metabolite generated from Ang-(1-12), aliskiren + lisinopril: aliskiren 10 µmol/L + lisinopril 10 µmol/L; for Angiotensin metabolite generated from Ang-(1-12), aliskiren: aliskiren 10 µmol/L
# Method: Heparin plasma was obtained from 3 healthy volunteers (1 woman, 2 men; age range 30–40 years). The plasma was incubated for 1 hour at 37 °C, in the absence or presence of the renin inhibitor aliskiren (10 µmol/L), the ACE inhibitor lisinopril (10 µmol/L), the chymase inhibitor chymostatin (10 µmol/L), the aminopeptidase A inhibitor amastatin (10 µmol/L), the neprilysin inhibitor sacubitrilat (LBQ-657, 10 µmol/L), or the prolyl oligopeptidase inhibitor ZPP (20 µmol/L). All inhibitors were from Sigma Aldrich, St. Louis, MO. Next, the plasma was diluted 1:10 in PBS (t=0) and incubated again for 1 hour at 37 °C (t=60) with 1000 ng/mL Ang-(1-12; Sigma Aldrich). Samples at 0 and 60 minutes were collected in 6 mol/L guanidine hydrochloride, and angiotensins were quantified by LC-MS/MS.
# Human ([sequence], molecular weight: 1508.8 Da) and murine ([sequence], molecular weight: 1572.8 Da) Ang-(1-12) were quantified by LC-MS/MS. […] The powder was dissolved by cooled sonication using a 2-mm microtip (Sonics and Materials, Newton, NJ). Stable isotope-labeled IS for human and murine Ang-(1-12)–containing isoleucine C^13/N^15 (mass +7) at [Ile5] were spiked to tissue homogenates and stabilized blood samples at 1000 pg/mL for internal standardization. The samples then underwent C18-based solid-phase extraction for purification before being subjected to liquid chromatography using a reversed-phase analytical column operating in line with a Xevo TQ-S triple quadruple mass spectrometer (Waters). Two independent MS/MS transitions based on the mass-to-charge ratio of the parent (+3) and fragment ions (+2) were recorded for each analyte and IS simultaneously. Signals from IS were used to correct for peptide recovery in the sample preparation procedure and matrix signal suppression for each analyte in each individual sample.
# Data are provided as individual values and means. Statistical analysis was done by the Student’s t test or by ANOVA, followed by post hoc correction according to Dunnett.
# [2] = Heparin plasma from 3 healthy volunteers, diluted 1:10 in PBS; details: human, 37 °C, up to 60 minutes
# neprilysin = assay: renal cortical membranes; details: cited from earlier work
# [3] = test system: angiotensin-converting enzyme (ACE); assay: extracellular, eg, in blood; details: cited from earlier work
# chymase = assay: intracellular, eg, at tissue sites; details: cited from earlier work
# [4] = Disappearance of Ang-(1-12) added to nonstabilized human plasma incubated at 37 °C; assay type: in vitro ADME; details: LC-MS/MS
# Method: MS/MS transitions were as follows:
# Signals for all 4 analytes were recorded simultaneously in all samples to show the specificity of the gained signals. […] The lower limit of quantification was 2 fmol/mL in blood and 10 fmol/g in tissue (ie, 3 pg/mL and 15 pg/g, respectively). Ang I, Ang II, Ang III, Ang IV, Ang-(1-7), and Ang-(1-5) were determined by LC-MS/MS as described before.[27],[28]
# A rapid collection of blood in 6 mol/L guanidine hydrochloride was chosen for blood collection since this allowed a full recovery of spiked Ang-(1-12; Figure 1A). Importantly, Ang-(1-12) remained undetectable when incubating nonstabilized plasma at 37 °C (Figure 1B), while Ang-(1-12) added to nonstabilized human plasma disappeared almost completely (>80%) within 10 minutes during incubation at 37 °C (Figure 1B). Stabilized human blood samples contained Ang I and Ang II, but Ang-(1-12) was not detectable (Figure 2C). Plasma obtained from the same patients contained normal renin and angiotensinogen levels (Figure 2A and 2B).[29],[30]
# [5] = Recovery of spiked Ang-(1-12) from blood collected in 6 mol/L guanidine hydrochloride; assay type: in vitro ADME; details: human blood collected in 6 mol/L guanidine hydrochloride; LC-MS/MS with stable isotope-labeled IS
# [6] = 1:10 diluted human plasma, LC-MS/MS
compound,measurement,setting,value
CC[C@H](C)[C@H](NC(=O)[C@H](Cc1ccc(O)cc1)NC(=O)[C@@H](NC(=O)[C@H](CCCNC(=N)N)NC(=O)[C@@H](N)CC(=O)O)C(C)C)C(=O)O [Ang-(1-5)] (H-DRVYI-OH),"Angiotensin metabolite generated from Ang-(1-12), aliskiren + lisinopril",[1]; [6],< 2 pg/mL
same,"Angiotensin metabolite generated from Ang-(1-12), aliskiren",[1]; [6],983 pg/mL
"angiotensin II (DRVYIHPF; Angiotensin-2; UniProt P01019 25-32, looked up) [Ang II]","Angiotensin metabolite generated from Ang-(1-12), aliskiren + lisinopril",[1]; [6],417 pg/mL
same,"Angiotensin metabolite generated from Ang-(1-12), aliskiren",[1]; [6],7239 pg/mL
DRVYIHPFHLVI,fragment found,[2],Ang I; also recorded: Ang II; also recorded: Ang-(1-5)
same,fragment found,neprilysin,Ang-(1-7)
same,fragment found,[3],Ang I; also recorded: Ang II
same,fragment found,chymase,Ang II
CC[C@H](C)[C@H](NC(=O)[C@H](Cc1ccc(O)cc1)NC(=O)[C@@H](NC(=O)[C@H](CCCNC(=N)N)NC(=O)[C@@H](N)CC(=O)O)C(C)C)C(=O)N[C@@H](Cc1c[nH]cn1)C(=O)N1CCC[C@H]1C(=O)O [Ang-(1-7)],Reduction in metabolite formation from Ang-(1-12) by ACE inhibition,"[1]; 1:10 diluted human plasma, 60 min, aliskiren + lisinopril vs aliskiren",50%
same,"Angiotensin metabolite generated from Ang-(1-12), aliskiren + lisinopril",[1]; [6],946 pg/mL
same,"Angiotensin metabolite generated from Ang-(1-12), aliskiren",[1]; [6],2238 pg/mL
"CC[C@H](C)[C@H](NC(=O)[C@@H](NC(=O)[C@H](CC(C)C)NC(=O)[C@H](Cc1c[nH]cn1)NC(=O)[C@H](Cc1ccccc1)NC(=O)[C@@H]1CCCN1C(=O)[C@H](Cc1c[nH]cn1)NC(=O)[C@@H](NC(=O)[C@H](Cc1ccc(O)cc1)NC(=O)[C@@H](NC(=O)[C@H](CCCNC(=N)N)NC(=O)[C@@H](N)CC(=O)O)C(C)C)[C@@H](C)CC)C(C)C)C(=O)O [Ang-(1-12), Angiotensin-(1-12)] (H-DRVYIHPFHLVI-OH)",Fraction of added Ang-(1-12) that disappeared within 10 minutes,[4]; 10 minutes,> 80%
same,metabolised at 10 min,"[4]; 10 minutes, read-out: Fraction of added Ang-(1-12) that disappeared within 10 minutes",~80%
same,Time within which added angiotensin-(1-12) disappeared,[4],≤ 10 min
same,Recovery of spiked Ang-(1-12),[5],full recovery
same,Contribution of chymase to Ang-(1-12) metabolism,"[1]; 1:10 diluted human plasma, 60 min, 1000 ng/mL, chymase inhibitor chymostatin 10 µmol/L, LC-MS/MS, n = 3",did not contribute to its metabolism
same,Contribution of prolyl oligopeptidase to Ang-(1-12) metabolism,"[1]; 1:10 diluted human plasma, 60 min, 1000 ng/mL, prolyl oligopeptidase inhibitor ZPP 20 µmol/L, LC-MS/MS, n = 3",did not contribute to its metabolism
same,Disappearance of Ang-(1-12) in the presence of aliskiren,"[1]; 1:10 diluted human plasma, 60 min, 1000 ng/mL, renin inhibitor aliskiren 10 µmol/L, LC-MS/MS, n = 3",unaltered
same,Change in Ang-(1-12) recovery after inhibiting neprilysin,"[1]; 1:10 diluted human plasma, 60 min, 1000 ng/mL, sacubitrilat (LBQ-657) 10 µmol/L, LC-MS/MS, n = 3",did not observe a change
same,Change of Ang-(1-12) half-life on addition of lisinopril,"[1]; 1:10 diluted human plasma, 60 min, 1000 ng/mL, subsequent addition of ACE inhibitor lisinopril 10 µmol/L, LC-MS/MS, n = 3",doubling the half-life
same,Change of Ang-(1-12) half-life on addition of amastatin,"[1]; 1:10 diluted human plasma, 60 min, 1000 ng/mL, subsequent addition of aminopeptidase A inhibitor amastatin 10 µmol/L, LC-MS/MS, n = 3",tripling the half-life
same,Half-life of Ang-(1-12) corresponding to undiluted plasma,[1]; extrapolated from 1:10 diluted human plasma,< 3 min
